How the values were obtained:
[1] = test system: MIP101 cells resistant to 5-FU (MIP-5FUR, MIP/5FU); assay: TUNEL assay of apoptosis in 5-FU resistant MIP101 cells; format: cell-based
Procedure: (§1) Cell Culture—The colorectal cell line MIP-101 was maintained in Dulbecco's modified Eagle's medium (DMEM) (Invitrogen) supplemented with 10% fetal bovine serum (FBS) (Invitrogen), 1% penicillin/streptomycin (Invitrogen) at 37° C. and 5% CO2. Resistant MIP101 cells were developed following long-term incubation with incremental concentrations of 5-fluorouracil (5-FU), irinotecan (CPT-11), cisplatin (CIS), and etoposide (ETO). Stable MIP101 cells transduced with SPARC (MIP/SP) were maintained in DMEM supplemented with 10% FBS, 1% penicillin/streptomycin, and 0.1% Zeocin at 37° C. and 5% CO2.
(§2) Quantitation of Apoptosis—For the TUNEL assay, cells were plated onto glass coverslips in 6-well plates at 250,000 cells/plate overnight prior to any induction study 24 hours later. […] Cells were then processed for labeling by Apoptosis Detection Kit (Promega) according to the manufacturer's instructions. For quantitation of apoptosis, cells were plated at 250,000 cells/plate in 6-well plates overnight, followed by 12-hr incubation with the following chemotherapy agents: 5-FU 1000 μM, CPT-11 200 μM, cisplatin 100p4, and etoposide 10 μM. Cells were collected by using a nonenzymatic cell dissociation medium (Sigma), washed with phosphate-buffered saline and subsequently stained for Annexin V and propidium iodide using an Apoptosis detection kit (R & D Research) according to the manufacturer's protocol. The proportion of cells labeled with Annexin V and propidium iodide was analyzed by XL Flow Cytometry Analyzer. Data was collected from 100,000 events.

MIP/SP cells [2] = assay: Colony forming (clonogenic) assay, SPARC-overexpressing cells versus control; format: cell-based; details: increasing concentrations of chemotherapy (FIG. 21B)
Procedure: Transfection and Selection of Clone—The SPARC cDNA was cloned into pcDNA3.1 expression vector. Transfections were performed with 2.0 μg of the gene/expression vector construct using the polyethylenimine method of Boussiff et al. (1995) with minor modifications (Tai et al., 2002). After transfection, cells were washed with phosphate-buffered saline (PBS, pH 7.4) and maintained in culture medium for 24 hours, followed by a change to an appropriate selection medium containing 1% Zeocin. Cells were selected based on Zeocin resistance and individual colonies and clones from these colonies were then propagated for further verification. Stably transduced clones (MIP/SP) were screened for SPARC mRNA expression by reverse-transcription polymerase chain reaction (RT-PCR) analysis. MIP/SP clones with the highest expression of SPARC mRNA (by RT-PCR) and protein (by Western blot) were selected for subsequent in-vitro and in-vivo studies. Control cell lines used for this study included MIP101 cells stably transduced with pcDNA3.1 empty vector only (MLP/Zeo) and selected based on Zeocin resistance. Colony forming Assay—For clonogenic cell survival studies, MIP101 parental cells and MIP/SP cells were plated at 1,000 cells/plate in 48-well plates and incubated with increasing concentrations of 5-FU (0, 10 μM, 100 μM, 1000 μM), CPT-11 (0, 1 μM, 10 μM, 100 μM), or etoposide (0, 10 μM, 100 μM, 1000 μM) for 4 days. Cells were then washed with PBS and incubated in fresh medium containing the appropriate concentrations of chemotherapy for an additional 7 days. Each well was stained with crystal violet and the colonies with more than 50 cells were counted. The number of colonies formed in the treated group was calculated based on the colonies formed from the control, untreated cells.

MIP/SP cells [3] = assay: Quantitation of apoptosis by Annexin V labeling and flow cytometry, SPARC-overexpressing cells versus control; format: cell-based; details: 12-hr exposure, p<0.05
Procedure: Quantitation of Apoptosis—For the TUNEL assay, cells were plated onto glass coverslips in 6-well plates at 250,000 cells/plate overnight prior to any induction study 24 hours later. For the assessment of apoptosis following exogenous SPARC (Haematologic Technologies Inc), cells were incubated with SPARC 5 μg/ml for 24 hrs followed by a 12-hr exposure to 5-FU 1000 μM. Cells were then processed for labeling by Apoptosis Detection Kit (Promega) according to the manufacturer's instructions. For quantitation of apoptosis, cells were plated at 250,000 cells/plate in 6-well plates overnight, followed by 12-hr incubation with the following chemotherapy agents: 5-FU 1000 μM, CPT-11 200 μM, cisplatin 100p4, and etoposide 10 μM. Cells were collected by using a nonenzymatic cell dissociation medium (Sigma), washed with phosphate-buffered saline and subsequently stained for Annexin V and propidium iodide using an Apoptosis detection kit (R & D Research) according to the manufacturer's protocol. The proportion of cells labeled with Annexin V and propidium iodide was analyzed by XL Flow Cytometry Analyzer. Data was collected from 100,000 events.
Transfection and Selection of Clone—The SPARC cDNA was cloned into pcDNA3.1 expression vector. Transfections were performed with 2.0 μg of the gene/expression vector construct using the polyethylenimine method of Boussiff et al. (1995) with minor modifications (Tai et al., 2002). After transfection, cells were washed with phosphate-buffered saline (PBS, pH 7.4) and maintained in culture medium for 24 hours, followed by a change to an appropriate selection medium containing 1% Zeocin. Cells were selected based on Zeocin resistance and individual colonies and clones from these colonies were then propagated for further verification. Stably transduced clones (MIP/SP) were screened for SPARC mRNA expression by reverse-transcription polymerase chain reaction (RT-PCR) analysis. MIP/SP clones with the highest expression of SPARC mRNA (by RT-PCR) and protein (by Western blot) were selected for subsequent in-vitro and in-vivo studies. Control cell lines used for this study included MIP101 cells stably transduced with pcDNA3.1 empty vector only (MLP/Zeo) and selected based on Zeocin resistance.

MIP101 tumor xenografts = assay: MIP101 tumor xenograft animal model; format: in vivo, NIH nude mice; details: 5-FU alone, n=6
Procedure: (§3) Concentrated SPARC-containing supernatant [SPARC(s)]—MIP/SP cells were plated at 1×10^6 cells in […] in DMEM (10% FBS, 1% penicillin/streptomycin, 0.1% Zeocin) for 24 hrs. Cells were subsequently washed with PBS twice and incubated in serum-free VP-SFM medium supplemented with glutamine 4 mM (Invitrogen) for 72 hrs. This medium was concentrated from 500 ml to 2 ml using Centricon Filter units (Millipore) at 4° C. All media collected and processed by this method were used for subsequent animal studies.
(§4) Animal Studies—Tumor xenograft animal models were used to assess the effect of SPARC on tumor progression in-vivo. NIH nude mice (6 weeks old, Taconic Laboratories) were engrafted following subcutaneous injection of 2×10^6 cells into the left flank. Treatment regimens were initiated once the average tumor size was 50-75 mm^3 in size. Tumor measurements were performed using a hand-held caliper (Fisher) twice weekly and weight measurements were made concurrently until the completion of the study. Chemotherapy was provided using a 3-week cycle regimen for a total of 6 cycles: 5-FU 25 mg/kg or CPT-11 25 mg/kg intraperitoneal injections three times on week 1 of each cycle, followed by 2 weeks of treatment-free periods. Dosing schedule for SPARC(s) was 100 μL of SPARC(s) three times per week until the completion of the chemotherapy cycle.

parental MIP101 cells = assay: TUNEL assay of apoptosis in parental MIP101 cells; format: cell-based
Procedure: as §1, §2

MIP/SP tumor xenografts = assay: Tumor xenografts of SPARC-overexpressing cells treated with chemotherapy; format: in vivo, NIH nude mice; details: for rate of tumor regression, MIP/SP versus parental MIP101 xenografts: FIG. 14
Procedure: as §4

MIP/5FU tumor xenografts = assay: MIP/5FU tumor xenograft animal model; format: in vivo, NIH nude mice; details: 5-FU alone (FIG. 18), n=6
Procedure: as §3, §4

Molecule: O=c1[nH]cc(F)c(=O)[nH]1 [5-FU, 5-fluorouracil]
- apoptosis (TUNEL) ([1]; MIP-5FUR cells, 5-FU 500 uM): could not be triggered to undergo apoptosis
- apoptosis (TUNEL stain) ([1]; resistant phenotype (MIP/5FU), 5-FU 1000 uM (FIG. 21A)): lack of apoptosis
- cell colonies, MIP/SP versus MIP/Zeo (MIP/SP cells [2]): fewer cell colonies of MIP/SP cells
- cells undergoing apoptosis, MIP/SP versus MIP/Zeo (MIP/SP cells [3]): Greater number
- complete tumor regression (MIP101 tumor xenografts; by 42 days post-treatment (FIG. 17)): not observed
- complete tumor regression (MIP101 tumor xenografts; by 84 days post-treatment (FIG. 16)): not observed
- apoptosis (TUNEL) (parental MIP101 cells; parental sensitive MIP101 cells, 5-FU at a similar concentration (500 uM)): a significant number of cells from the parental, sensitive cell line underwent apoptosis
- apoptosis (TUNEL stain) (parental MIP101 cells; sensitive MIP101 cells, 5-FU 1000 uM (FIG. 21A)): positively stained cells
- rate of tumor regression, MIP/SP versus parental MIP101 xenografts (MIP/SP tumor xenografts): more rapid rate of tumor regression
- remission of MIP-SPARC xenograft (MIP/SP tumor xenografts; representative animals, 2 cycles of 5-FU, by 23 days post-transplant): complete remission
- tumor growth (MIP/5FU tumor xenografts): rapid tumor growth continued

Molecule: CCc1c2c(nc3ccc(OC(=O)N4CCC(N5CCCCC5)CC4)cc13)-c1cc3c(c(=O)n1C2)COC(=O)[C@]3(O)CC [CPT-11, irinotecan]
- cell colonies, MIP/SP versus MIP/Zeo (MIP/SP cells [2]): fewer cell colonies of MIP/SP cells
- cells undergoing apoptosis, MIP/SP versus MIP/Zeo (MIP/SP cells [3]): Greater number
- rate of tumor regression, MIP/SP versus parental MIP101 xenografts (MIP/SP tumor xenografts): more rapid rate of tumor regression
- tumor size versus parental MIP101 xenograft (MIP/SP tumor xenografts; representative animals, 2 cycles of CPT-11): significantly smaller tumors

Molecule: N.N.[Cl][Pt][Cl] [cisplatin]
- cells undergoing apoptosis, MIP/SP versus MIP/Zeo (MIP/SP cells [3]): Greater number

Molecule: COc1cc([C@@H]2c3cc4c(cc3[C@@H](O[C@@H]3O[C@@H]5CO[C@@H](C)O[C@H]5[C@H](O)[C@H]3O)[C@H]3COC(=O)[C@H]23)OCO4)cc(OC)c1O [etoposide]
- cell colonies, MIP/SP versus MIP/Zeo (MIP/SP cells [2]): fewer cell colonies of MIP/SP cells
- cells undergoing apoptosis, MIP/SP versus MIP/Zeo (MIP/SP cells [3]): Greater number

B1: SPARC: Secreted protein acidic and rich in cystein; exogenous SPARC polypeptide (Haematologic Technologies Inc) (protein, UniProt P09486 18-303, looked up)
SPARC: APQQEALPDETEVVEETVAEVTEVSVGANPVQVEVGEFDDGAEETEEEVVAENPCQNHHCKHGKVCELDENNTPMCVCQDPTSCPAPIGEFEKVCSNDNKTFDSSCHFFATKCTLEGTKKGHKLHLDYIGPCKYIPPCLDSELTEFPLRMRDWLKNVLVTLYERDEDNNLLTEKQKLRVKKIHENEKRLEAGDHPVELLARDFEKNYNMYIFPVHWQFGQLDQHPIDGYLSHTELAPLRAPLIPMEHCTTRFFETCDLDNDKYIALDEWAGCFGIKQKDIDKDLVI
- sensitivity to 5-FU (TUNEL-positive cells) ([1]; MIP/5FU cells, 24 hr SPARC 5 ug/ml, then 5-FU 1000 uM (FIG. 21A)): once again became sensitive to 5-FU
- apoptosis (TUNEL), SPARC alone ([1]; resistant cells, exogenous SPARC alone without chemotherapy): did not induce apoptosis
- reversal of resistant phenotype (apoptotic cells by TUNEL) ([1]; resistant clones, SPARC 24-hr incubation followed by 12-hr exposure to a chemotherapeutic agent): sufficient in reversing the resistant phenotype
- apoptosis (TUNEL), SPARC alone (parental MIP101 cells; parental MIP 101 cells, exogenous SPARC alone without chemotherapy): did not induce apoptosis
